The source of these data is patent US9365553B2, “Heterocyclic compound and H1 receptor antagonist” (Aska Pharmaceutical Co., Ltd., priority 2010, dated 2016).

Structures are written as SMILES. pIC50: −log10 of the molar value.

The target of one assay is T1, rat H1 receptor (Rattus norvegicus, UniProt P31390).
T1 construct: An H1 receptor membrane preparation was prepared from rat cerebrum; from tissue; host or cells: rat cerebrum
Kind of assay: Rat H1 receptor affinity test (Test Example 1). It counts as binding. The conditions noted are these: rat cerebrum membrane preparation, [3H]-pyrilamine 2 nmol/L. How it is done:
An H1 receptor membrane preparation was prepared from rat cerebrum. […] To the resulting each sample, 50 μL of 8 nmol/L [^3H]-pyrilamine (manufactured by PerkinElmer) (final concentration: 2 nmol/L) was added and mixed. After the mixture was incubated at a room temperature for 30 minutes, the reaction solution was collected on a glass filter by a cell harvester (manufactured by Molecular Devices), and then the filter was washed with the incubation buffer. The glass filter was cut off and transferred in a vial. To the vial was added 5 mL of a scintillator (manufactured by National Diagnostics), and the mixture was shaken for not less than one hour. Thereafter, the radioactive concentration was measured by a liquid scintillation counter.

For assay [1], the system named is histamine-induced skin reaction in mouse. Kind of assay: Skin reaction test in mouse (Test Example 4). Format: in vivo. The conditions noted are these: oral, histamine 3 μg/50 μL/site intradermal, pigment area, read-out: Skin reaction test in mouse ID50. How it is done:
(§1) Each mouse was sheared the day before test and fasted overnight. A low, middle or high dose of each test compound suspended in a 0.5% (W/V) CMC-Na aqueous solution was orally administered to the mouse. One hour after the administration, a 1% Evans Blue physiological saline solution (Tokyo Chemical Industry Co., Ltd.) was administered into the caudal vein in a dose of 10 mL/kg, and immediately histamine 3 μg/50 μL/site was intradermally administered into the dorsum. Thirty minutes after the administration, the mouse was anesthetized with diethyl ether and then euthanized by cervical dislocation. The skin was ablated, and the major axis and minor axis of a spot of the pigment exuded into the skin were measured to calculate the area of the pigment.

The subject of assay [2] is histamine-induced skin reaction in rat. The assay can be described thus: Histamine-induced skin reaction test in rat (Test Example 3). Format: in vivo. The following applies: oral, histamine 10 μg/0.1 mL/site intradermal, pigment area, read-out: Skin reaction test in rat ID50. Here is the method:
as §1, with “Each mouse was sheared the day before test and fasted overnight. A low, middle or high dose of each test compound suspended in a 0.5% (W/V) CMC-Na aqueous solution was orally administered to the mouse.” left out, “5” for “10”, “10 μg/0.1 mL/site (manufactured by Wako Pure Chemical Industries, Ltd.)” for “3 μg/50 μL/site”, “rat” for “mouse”

The target in a further assay is T2, human H1 receptor (Homo sapiens, UniProt P35367).
T2 construct: purchased; host or cells: CHO cells
T2 sequence (P35367 whole entry): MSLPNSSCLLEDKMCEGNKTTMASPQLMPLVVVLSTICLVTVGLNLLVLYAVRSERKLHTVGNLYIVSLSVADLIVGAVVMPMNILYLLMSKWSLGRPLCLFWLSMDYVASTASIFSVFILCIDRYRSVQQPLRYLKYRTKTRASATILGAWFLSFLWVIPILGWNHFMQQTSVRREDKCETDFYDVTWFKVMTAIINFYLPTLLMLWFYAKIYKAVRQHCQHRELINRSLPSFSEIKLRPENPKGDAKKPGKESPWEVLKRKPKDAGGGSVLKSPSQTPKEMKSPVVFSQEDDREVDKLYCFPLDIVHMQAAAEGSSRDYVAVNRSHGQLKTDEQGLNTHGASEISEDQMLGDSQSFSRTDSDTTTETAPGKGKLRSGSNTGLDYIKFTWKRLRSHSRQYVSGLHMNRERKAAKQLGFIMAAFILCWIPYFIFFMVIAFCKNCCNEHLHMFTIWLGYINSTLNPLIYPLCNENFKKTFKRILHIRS
Kind of assay: Human H1 receptor affinity test (Test Example 2). Format: binding. The conditions noted are these: CHO cell membrane preparation expressing human H1 receptor, [3H]-pyrilamine 2 nmol/L. Here is the method: Chinese hamster ovarian cells (CHO cells) having human H1 receptor forcibly express were purchased and used as an H1 receptor membrane preparation. […] To the resulting each sample, 50 μL of 8 nmol/L [^3H]-pyrilamine (final concentration: 2 nmol/L) was added and mixed. […] The glass filter was cut off and transferred in a vial. To the vial was added 5 mL of a scintillator (manufactured by National Diagnostics), and the mixture was shaken for not less than one hour. Thereafter, the radioactive concentration was measured by a liquid scintillation counter.

Assay [3] relates to mouse IgE-dependent ear edema model. Kind of assay: Inhibitory effects on mouse IgE-dependent ear edema model (Test Example 5).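 For all read-outs here: doses given 1 h before and 6 h after antigen.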 Format: in vivo. The following applies: oral twice a day, dose one-third of ID50 (Dose column of Table D); for Inhibitory effects in each allergic reaction phase: Immediate phase: mouse ear swelling 1 hour after antigen; for Inhibitory effects in each allergic reaction phase: Late phase: mouse ear swelling 24 hours after antigen; for Inhibitory effects in each allergic reaction phase: Very late phase: mouse ear swelling 7 days after antigen. How it is done:
(§2) To each mouse, 0.25 mL of an anti-DNP-IgE antibody (manufactured by SIGMA-ALDRICH) was intravenously administered for passive sensitization. On the day following the administration, an antigen (DNFB solution; manufactured by Wako Pure Chemical Industries, Ltd.) was applied on the right ear to induce dermatitis (ear swelling). One hour, 24 hours and 7 days after the application of the antigen, the thickness of the right ear was measured by a thickness measuring apparatus (dial thickness gauge). […] The thickness of the right ear before the sensitization was measured beforehand; the inhibition rates of the swelling in immediate phase, late phase, and very late phase were calculated.

The test system is the same in assay [4]. Kind of assay: Inhibitory effects on mouse IgE-dependent ear edema model (Test Example 8).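 For all read-outs here: 5 or 10 times the mouse skin-reaction ID50 per dose.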 It counts as in vivo. The conditions noted are these: oral twice a day, dose a multiple of mouse ID50 (Dose column of Table E); for Inhibitory effects in each allergic reaction phase: Immediate phase: mouse ear swelling 1 hour after antigen; for Inhibitory effects in each allergic reaction phase: Late phase: mouse ear swelling 24 hours after antigen; for Inhibitory effects in each allergic reaction phase: Very late phase: mouse ear swelling 7 days after antigen. How it is done: as §2

T1 sequence (P31390 whole entry): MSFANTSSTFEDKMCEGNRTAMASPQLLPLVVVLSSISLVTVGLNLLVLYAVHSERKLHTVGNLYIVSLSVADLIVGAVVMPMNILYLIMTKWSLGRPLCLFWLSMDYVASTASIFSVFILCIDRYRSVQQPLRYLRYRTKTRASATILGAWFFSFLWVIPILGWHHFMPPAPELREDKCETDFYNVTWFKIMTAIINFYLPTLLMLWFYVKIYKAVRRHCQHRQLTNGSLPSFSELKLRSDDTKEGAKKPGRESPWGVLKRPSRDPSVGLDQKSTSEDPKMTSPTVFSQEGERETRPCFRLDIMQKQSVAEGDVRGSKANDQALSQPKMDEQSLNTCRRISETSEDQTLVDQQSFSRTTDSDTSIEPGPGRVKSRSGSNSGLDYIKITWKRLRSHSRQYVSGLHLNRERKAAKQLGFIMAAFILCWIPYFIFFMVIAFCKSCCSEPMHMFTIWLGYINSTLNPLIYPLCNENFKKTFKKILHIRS

Usually pIC50 stands for the negative decadic logarithm of the IC50, by convention in mol/L. The low end stands for a high IC50, the high end for a low IC50. With `O=C(O)c1cccc(CN2CCC(=C3c4ccccc4C=Cc4cccnc43)CC2)n1` [Example 71], the negative logarithm of the IC50 (pIC50) on rat H1 receptor was 7.80; against human H1 receptor, 7.85. Also, the ED50 in assay [1] came to 0.07 mg/kg; in assay [2], 0.6 mg/kg.

As to `O=C(O)c1cccc(CN2CCC(OC(c3ccccc3)c3ccc(Cl)cc3)CC2)n1` (stereo not shown) [Example 22], the pIC50 against rat H1 receptor was 8.24; against human H1 receptor, 7.89. The ED50 turned out to be 0.01 mg/kg in assay [1] and 0.5 mg/kg in assay [2].

For `CN(C)CC/C=C1/c2ccccc2COc2ccc(CC(=O)O)cc21` [Olopatadine], in assay [3], the “Inhibitory effects in each allergic reaction phase: Immediate phase” value (shortened to “Inhibitory effects … Immediate phase”) is listed as “++ (++ Inhibitory rate 45 to 25%)”, the “Inhibitory effects in each allergic reaction phase: Late phase” value is on record as “− (− Inhibitory rate less than 10%)” and the “Inhibitory effects in each allergic reaction phase: Very late phase” value (“Inhibitory effects … Very late phase” below) is given as “+ (+ Inhibitory rate 24 to 10%)”. In assay [4], the “Inhibitory effects … Immediate phase” value is recorded as “++ (++ Inhibitory rate 45 to 20%)”, the “Inhibitory effects in each allergic reaction phase: Late phase” value is recorded as “− (− Inhibitory rate less than 10%)” and the “Inhibitory effects … Very late phase” value is listed as “− (− Inhibitory rate less than 10%)”.

Take `O=C(O)c1cccc(CN2CCC(=C3c4ccccc4C=Cc4cccnc43)CC2)c1` [Example 70]: the pIC50 was 7.55 against rat H1 receptor and 7.85 against human H1 receptor. In addition, the ED50 in assay [1] came out at 0.12 mg/kg; in assay [2], 1.6 mg/kg.

On to `O=C(O)c1cccc(CN2CCC(OC(c3ccccc3)c3ccccc3)CC2)n1` [Example 2, 6-(4-benzhydryloxypiperidin-1-ylmethyl)pyridine-2-carboxylic acid], for which the figures for the “Inhibitory effects … Immediate phase” value in assay [3] and in assay [4] were “++ (++ Inhibitory rate 45 to 25%)” and “++ (++ Inhibitory rate 45 to 20%)”, respectively. For the same compound, the “Inhibitory effects in each allergic reaction phase: Late phase” value was “++ (++ Inhibitory rate 45 to 25%)” in assay [3] and “++ (++ Inhibitory rate 45 to 20%)” in assay [4]. The figures for the “Inhibitory effects … Very late phase” value in assay [3] and in assay [4] were “+ (+ Inhibitory rate 24 to 10%)” and “+ (+ Inhibitory rate 19 to 10%)”, respectively. Also, the pIC50 was 7.60 on rat H1 receptor and 8.00 against human H1 receptor. The results for the ED50 in assay [1] and in assay [2] were 0.1 mg/kg and 3.4 mg/kg, respectively.

Regarding `O=C(O)c1cccc(CN2CCC(=C3c4ccc(Cl)cc4CCc4cccnc43)CC2)c1` [Example 67, 3-[4-(8-Chloro-5,6-dihydrobenzo[5,6]cyclohepta[1,2-b]pyridin-11-ylidene)piperidin-1-ylmethyl]benzoic acid], the ED50 was found to be 0.09 mg/kg in assay [1] and 1.2 mg/kg in assay [2].

`O=C(O)c1cccc(CN2CCC(OC(c3ccccc3)c3ccc(F)c(F)c3)CC2)n1` (stereo not shown) [Example 48]: the figures for the pIC50 against rat H1 receptor and on human H1 receptor were 7.28 and 7.60, respectively. In addition, the ED50 in assay [1] stood at 0.05 mg/kg; in assay [2], 2.9 mg/kg.

Consider `O=C(O)c1cccc(CN2CC[C@H](OC(c3ccccc3)c3ccccc3)C2)n1` [Example 129, 6-((S)-3-Benzhydryloxypyrrolidin-1-ylmethyl)pyridine-2-carboxylic acid], for which the ED50 in assay [1] is 0.04 mg/kg. This compound also showed a pIC50 against human H1 receptor of 8.29. In addition, in assay [4], the “Inhibitory effects … Immediate phase” value is listed as “++ (++ Inhibitory rate 45 to 20%)”, the “Inhibitory effects in each allergic reaction phase: Late phase” value was “++ (++ Inhibitory rate 45 to 20%)” and the “Inhibitory effects … Very late phase” value was “++ (++ Inhibitory rate 45 to 20%)”.

`O=C(O)c1cccc(CN2CCN(C(c3ccc(F)cc3)c3ccc(F)cc3)CC2)n1` [Example 11, 6-{4-[bis(4-fluorophenyl)methyl]piperazin-1-ylmethyl}pyridine-2-carboxylic acid]: the “Inhibitory effects … Immediate phase” value in assay [3] was “++ (++ Inhibitory rate 45 to 25%)”; in assay [4], “++ (++ Inhibitory rate 45 to 20%)”. For the same compound, the “Inhibitory effects in each allergic reaction phase: Late phase” value in assay [3] was “++ (++ Inhibitory rate 45 to 25%)”; in assay [4] it was “++ (++ Inhibitory rate 45 to 20%)”. In addition, the figures for the “Inhibitory effects … Very late phase” value in assay [3] and in assay [4] were “++ (++ Inhibitory rate 45 to 25%)” and “++ (++ Inhibitory rate 45 to 20%)”, respectively. Moreover, the negative-log IC50 (pIC50) is 6.55 against rat H1 receptor and 7.66 against human H1 receptor. In addition, the results for the ED50 in assay [1] and in assay [2] were 0.01 mg/kg and 0.3 mg/kg, respectively.

Regarding `O=C(O)c1ccnc(CN2CCC(OC(c3ccccc3)c3ccc(F)cc3)CC2)c1` (stereo not shown) [Example 39], the “Inhibitory effects … Immediate phase” value in assay [3] is “++ (++ Inhibitory rate 45 to 25%)”; in assay [4], “++ (++ Inhibitory rate 45 to 20%)”. The entries for the “Inhibitory effects in each allergic reaction phase: Late phase” value in assay [3] and in assay [4] were “++ (++ Inhibitory rate 45 to 25%)” and “++ (++ Inhibitory rate 45 to 20%)”, respectively. For the same compound, the “Inhibitory effects … Very late phase” value in assay [3] was “++ (++ Inhibitory rate 45 to 25%)”; in assay [4], “++ (++ Inhibitory rate 45 to 20%)”. Besides, the negative logarithm of the IC50 (pIC50) at rat H1 receptor is 7.14; against human H1 receptor, 8.17. Moreover, the figures for the ED50 in assay [1] and in assay [2] were 0.04 mg/kg and 1.3 mg/kg, respectively.

`O=C(O)c1ccnc(CN2CCC(OC(c3ccccc3)c3ccccc3)CC2)c1` [Example 27] gave a pIC50 against rat H1 receptor of 7.51. Besides, the ED50 in assay [1] was found to be 0.03 mg/kg. This compound also had a pIC50 against human H1 receptor of 8.05. Also, in assay [4], the “Inhibitory effects … Immediate phase” value was “++ (++ Inhibitory rate 45 to 20%)”, the “Inhibitory effects in each allergic reaction phase: Late phase” value is “++ (++ Inhibitory rate 45 to 20%)” and the “Inhibitory effects … Very late phase” value is reported as “++ (++ Inhibitory rate 45 to 20%)”.

As to `O=C(O)c1cc(CN2CCC(OC(c3ccccc3)c3ccccc3)CC2)cs1` [Example 5], the pIC50 at rat H1 receptor is 8.15; against human H1 receptor, 8.00. For the same compound, the values for the ED50 in assay [1] and in assay [2] were 0.11 mg/kg and 1.8 mg/kg, respectively.

In the case of `O=C(O)c1cccc(C(F)(F)N2CCC(OC(c3ccccc3)c3ccccc3)CC2)n1` [Example 37, 6-[(4-Benzhydryloxypiperidin-1-yl)difluoromethyl]pyridine-2-carboxylic acid], the pIC50 on rat H1 receptor was 7.12; against human H1 receptor it was 7.92. Also, the ED50 in assay [1] was found to be 0.06 mg/kg; in assay [2] it was 3.2 mg/kg.

Take `O=C(O)CCCN1CCC(O[C@@H](c2ccc(Cl)cc2)c2ccccn2)CC1` [Bepotastine]: the negative logarithm of the IC50 (pIC50) against rat H1 receptor was 6.77; on human H1 receptor it was 7.70. For the same compound, the ED50 in assay [1] amounted to 0.02 mg/kg; in assay [2], 0.5 mg/kg.

On to `O=C(O)c1ccnc(CN2CCC(OC(c3ccc(F)cc3)c3ccccc3F)CC2)c1` (stereo not shown) [Example 87], for which, in assay [1], the ED50 was 0.06 mg/kg. In addition, on human H1 receptor, the pIC50 was 7.68. Also, in assay [4], the “Inhibitory effects … Immediate phase” value is listed as “++ (++ Inhibitory rate 45 to 20%)”, the “Inhibitory effects in each allergic reaction phase: Late phase” value was “++ (++ Inhibitory rate 45 to 20%)” and the “Inhibitory effects … Very late phase” value is given as “+ (+ Inhibitory rate 19 to 10%)”.
